Assay results as given in ChEMBL document CHEMBL1129864, “A new series of selective COX-2 inhibitors: 5,6-diarylthiazolo[3,2-b][1,2,4]triazoles” (Bioorg Med Chem Lett, 1997).

Experiments:
[1] = target: Prostaglandin G/H synthase 1 (Homo sapiens, UniProt P23219)
Description: Tested in vitro for the ability to inhibit Prostaglandin G/H synthase 1 in chinese hamster ovary (CHO) cells

[2] = target: T1, Prostaglandin G/H synthase 2 (Homo sapiens, UniProt P35354); type: cell-based, CHO
T1 sequence (P35354 whole entry): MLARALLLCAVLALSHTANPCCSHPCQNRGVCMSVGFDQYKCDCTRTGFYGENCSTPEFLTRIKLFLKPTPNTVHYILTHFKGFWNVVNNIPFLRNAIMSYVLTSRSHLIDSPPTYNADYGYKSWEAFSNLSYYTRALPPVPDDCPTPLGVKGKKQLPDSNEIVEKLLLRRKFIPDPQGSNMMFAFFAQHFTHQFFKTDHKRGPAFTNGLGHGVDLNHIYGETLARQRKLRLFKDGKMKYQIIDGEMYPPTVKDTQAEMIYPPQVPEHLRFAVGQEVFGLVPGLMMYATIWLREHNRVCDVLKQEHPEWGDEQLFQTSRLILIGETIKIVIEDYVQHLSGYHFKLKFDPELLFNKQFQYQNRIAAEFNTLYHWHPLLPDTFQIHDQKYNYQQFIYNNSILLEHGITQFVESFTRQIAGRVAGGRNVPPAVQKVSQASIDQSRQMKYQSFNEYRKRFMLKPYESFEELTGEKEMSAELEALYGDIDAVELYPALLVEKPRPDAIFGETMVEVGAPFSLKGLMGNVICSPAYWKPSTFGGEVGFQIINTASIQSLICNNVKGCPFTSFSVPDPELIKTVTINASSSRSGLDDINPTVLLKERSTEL
Description: Tested in vitro for the ability to inhibit Prostaglandin G/H synthase 2 in chinese hamster ovary (CHO) cells

[3] = target: T1, Prostaglandin G/H synthase 2; type: organism-based, Blood
Description: In vivo ability to inhibit Prostaglandin G/H synthase 2 in human whole blood assay

[4] = Percentage recovery after 3h incubation with rat hapatocytes was determined; type: ADME, organism-based; conditions: hepatocytes, read-out: Recovery
[5] = organism: Rattus norvegicus; assay: Plasma clearance in rat; type: ADME, organism-based; conditions: in vivo
[6] = Bioavailability at 4 hr after administration of 5 mg/kg dose peroral in rat; type: ADME, organism-based; conditions: in vivo, po
[7] = Maximum concentration at 4 hr after administration of 5 mg/kg dose peroral in rat; type: ADME, organism-based; parameters: dose 5 mg/kg, route oral; conditions: in vivo, po
[8] = organism: Rattus norvegicus; assay: Intrinsic activity in the rat pyresis assay; type: functional
[9] = organism: Rattus norvegicus; assay: Intrinsic activity in the rat hyperalgesia assay; type: functional; conditions: read-out: ID50 (the source's name)
[10] = tested on: Rattus norvegicus; assay: Intrinsic activity in the rat paw edema model; type: functional

Sequence of Prostaglandin G/H synthase 1 (P23219 whole entry): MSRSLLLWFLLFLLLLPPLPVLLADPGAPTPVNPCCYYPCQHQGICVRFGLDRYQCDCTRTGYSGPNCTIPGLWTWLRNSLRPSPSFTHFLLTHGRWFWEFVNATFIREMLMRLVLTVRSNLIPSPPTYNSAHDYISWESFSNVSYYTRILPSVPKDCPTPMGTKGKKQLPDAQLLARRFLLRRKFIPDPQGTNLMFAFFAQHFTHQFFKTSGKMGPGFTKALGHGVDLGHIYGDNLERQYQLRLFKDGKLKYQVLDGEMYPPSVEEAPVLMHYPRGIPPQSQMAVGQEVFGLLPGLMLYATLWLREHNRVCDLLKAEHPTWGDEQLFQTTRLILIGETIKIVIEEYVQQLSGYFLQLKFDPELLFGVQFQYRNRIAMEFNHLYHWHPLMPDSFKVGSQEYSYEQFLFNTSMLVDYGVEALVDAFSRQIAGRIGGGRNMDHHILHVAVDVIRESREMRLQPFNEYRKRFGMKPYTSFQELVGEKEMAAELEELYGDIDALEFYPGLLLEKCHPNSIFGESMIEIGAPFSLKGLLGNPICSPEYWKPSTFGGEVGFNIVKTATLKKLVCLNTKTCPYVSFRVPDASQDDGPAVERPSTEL

| Compound | IC50 [1] | IC50 [2] | IC50 [3] | also measured |
| --- | --- | --- | --- | --- |
| CS(=O)(=O)c1ccc(-c2sc3nc(C(F)(F)F)nn3c2-c2ccccc2)cc1 | 1100 nM |  |  |  |
| Cc1cccc(-c2c(-c3ccc(S(C)(=O)=O)cc3)sc3nc(C(F)(F)F)nn23)c1 | 610 nM | 3 nM |  |  |
| CS(=O)(=O)c1ccc(-c2sc3nc(C(F)(F)F)nn3c2-c2cccc(F)c2)cc1 | 8500 nM | 13 nM |  |  |
| CS(=O)(=O)c1ccc(-c2sc3ncnn3c2-c2cccc(F)c2)cc1 | > 50000 nM | 22 nM | 4200 nM |  |
| CCc1nc2sc(-c3ccc(S(C)(=O)=O)cc3)c(-c3ccccc3)n2n1 | 2400 nM | 15 nM |  |  |
| CS(=O)(=O)c1ccc(-c2sc3ncnn3c2-c2ccc(F)cc2)cc1 | 15000 nM | 36 nM |  |  |
| CS(=O)(=O)c1ccc(-c2c(-c3ccccc3)sc3nc(C(F)(F)F)nn23)cc1 | 9000 nM | > 50000 nM |  |  |
| CS(=O)(=O)c1ccc(-c2sc3ncnn3c2-c2cc(F)cc(F)c2)cc1 | > 50000 nM | 80 nM |  |  |
| Cc1nc2sc(-c3ccc(S(C)(=O)=O)cc3)c(-c3cccc(F)c3)n2n1 | > 50000 nM | 150 nM | 14000 nM |  |
| C=Cc1nc2sc(-c3ccc(S(C)(=O)=O)cc3)c(-c3ccccc3)n2n1 | 9600 nM | 6 nM | 4100 nM |  |
| Cc1nc2sc(-c3ccc(S(C)(=O)=O)cc3)c(-c3ccccc3)n2n1 | > 50000 nM | 20 nM | 10000 nM |  |
| CS(=O)(=O)c1ccc(-c2c(-c3ccccc3)nc3sccn23)cc1 |  |  |  | remaining at 3 h [4]: < 10% |
| CS(=O)(=O)c1ccc(-c2c(-c3ccccc3)sc3nncn23)cc1 | 2100 nM | 230 nM |  |  |
| COc1cccc(-c2c(-c3ccc(S(C)(=O)=O)cc3)sc3ncnn23)c1 | > 50000 nM | 260 nM |  |  |
| CS(=O)(=O)c1ccc(-c2sc3ncnn3c2-c2ccc(F)c(F)c2)cc1 | 30000 nM | 48 nM | > 30000 nM |  |
| CS(=O)(=O)c1ccc(-c2sc3ncnn3c2-c2ccccc2)cc1 | 43000 nM | 10 nM | 2300 nM | Clearance [5]: 13 mL/min/kg; bioavailability [6]: ~100%; Cmax [7]: 7.2 µM; remaining at 3 h [4]: > 95%; ED50 [8]: 1 mg/kg; ED50 [9]: 1 mg/kg; ED50 [10]: 1.7 mg/kg |
| CS(=O)(=O)c1ccc(-c2c(-c3ccccc3)sc3ncnn23)cc1 | > 50000 nM | 32 nM | > 30000 nM |  |
| CC(C)c1nc2sc(-c3ccc(S(C)(=O)=O)cc3)c(-c3ccccc3)n2n1 | 600 nM | 11 nM |  |  |
| CS(=O)(=O)c1ccc(-c2sc3nncn3c2-c2ccccc2)cc1 | > 50000 nM | 450 nM |  |  |
